Values belong to the compound of their own block, whether it stands above or below them.
Columns and labels:
[1] = Caco-2 permeability test; assay type: in vitro ADME, human; conditions: human, Caco-2, 2.4 μM
Experimental: E-3. Further Characterization E-3.1 Caco-2 Permeability Test
The in vitro permeation of a test compound across a Caco-2 cell monolayer is a well-established assay system to predict the permeability from the gastro-intestinal tract (1). The permeability of the compounds of the present invention in such Caco-2 cells was determined as described below:
Human caco-2 cells were seeded on 24-well insert plates and were allowed to grow for 14-16 days. For permeability studies, the test compounds were dissolved in DMSO and diluted to the final test concentration of 2 μM with transport buffer [Hanks' Buffered Salt Solution, Gibco/Invitrogen, further supplemented with glucose and HEPES]. For determination of the apical to basolateral permeability (PappA-B), the test compound solution was added to the apical side of the cell monolayer and transport buffer to the basolateral side of the monolayer; for determination of the basolateral to apical permeability (PappB-A), the test compound solution was added to the basolateral side of the cell monolayer and transport buffer to the apical side of the monolayer. Samples were taken from the donor compartment at the beginning of the experiment to confirm mass balance. After an incubation of 2 h at 37° C., samples were taken from both compartments. Samples were analyzed by LC-MS/MS, and the apparent permeability coefficients were calculated. Lucifer Yellow permeability was assayed for each cell monolayer to ensure cell monolayer integrity, and the permeability of Atenolol (low permeability marker) and Sulfasalazine (marker for active excretion) was determined for each batch as quality control.

[2] = test system: patients with severe pulmonary hypertension; conditions: cited from earlier work
[3] = test system: thromboxane A2 challenged PAH-minipig; assay: Haemodynamics in the anesthetized thromboxane challenged minipig, inhaled nebulized solution (PAP, BP); assay type: in vivo, Göttingen Minipigs; conditions: 10 μg/kg nominal dose inhaled, mean
Experimental: E-1 Haemodynamics in the Anesthetized Thromboxane Challenged Minipig
Lung Selectivity and Duration of Action
Healthy Göttingen Minipigs® Ellegaard (Ellegaard, Denmark) of both sexes and having a weight of 2-6 kg were used. The animals were sedated by i.m. administration of about 25 mg/kg ketamine and about 10 mg/kg azaperone. Anaesthesia was initiated by i.v. administration of about 2 mg/kg ketamine and about 0.3 mg/kg midazolam. Maintenance of anaesthesia was by i.v. administration of about 7.5-30 mg/kg/h ketamine and about 1-4 mg/kg/h midazolam (rate of infusion 1-4 ml/kg/h) and about 150 μg/kg/h pancuronium bromide (for example Pancuronium-Actavis). After intubation, the animals were ventilated by the ventilator at a constant respiratory volume (10-12 ml/kg, 35 breaths/min; Avea®, Viasys Healthcare, USA, or Engström Carestation, GE Healthcare, Freiburg, Germany) such that an end-tidal CO2 concentration of about 5% was achieved. Ventilation was performed with room air, enriched with about 40% oxygen (normoxia). For the measurement of the haemodynamic parameters such as pulmonary arterial pressure (PAP), blood pressure (BP) and heart rate (HR), catheters were inserted into the carotid artery to measure the blood pressure, and a Swan-Ganz® catheter was introduced in a flow-directed manner via the jugular vein into the pulmonary artery. The haemodynamic signals were recorded and evaluated by means of pressure transducers (Combitransducer, B. Braun, Melsungen, Germany)/amplifiers and Ponemah® as data acquisition software.
After the instruments have been placed into the animals, continuous infusion of a thromboxane A2 analog was initiated to increase the pulmonary arterial pressure. About 0.3-0.75 μg/kg/min of 9,11-didesoxy-9α,11α-epoxymethanoprostaglandine F2α (U-44069; Sigma, cat. no. D0400, or Cayman Chemical Company, cat. no. 16440), dissolved in physiological saline, were infused to achieve an increase of the mean pulmonary arterial pressure to values of over 25 mmHg. 30 minutes after the start of the infusion, a plateau was reached, and the experiment was started.
The test substances were administered as i.v. infusion or by inhalation. For the preparation of the solution for inhalation, the following procedure was adopted: For an animal having a weight of 4 kg, to prepare the stock solution (300 μg/kg), 1.2 mg of the test compound were weighed out and dissolved in a total volume of 3 ml (1% DMSO, 99% 0.2% strength citric acid solution, 1 n aqueous sodium hydroxide solution to adjust the pH to 8). The solution was then diluted to the concentration employed using 0.2% strength citric acid which had been adjusted to pH 8 beforehand with aqueous sodium hydroxide solution. In each test, 3 ml of the solution of test compound per 4 kg animal were nebulized in the inhalation arm of the respiratory circuit using the Aeroneb® Pro nebulizer system. The mean nebulization time was about 7 min from the start of the nebulization.
With respect to a prediction of the duration of action for human studies comparative example 11 was compared in the PAH minipig model after inhaled application to Ventavis® (=Iloprost, 10 μg/kg nominal dose), which we used as a clinical reference. […] Therefore, the duration of action is more than 6 times longer compared to Ventavis in this preclinical animal model.

[4] = test system: animal model of pulmonary hypertension; conditions: cited from earlier work

- efflux ratio at 2 h, 2.4 μM [1]: 11 ± 3.3
- Papp A→B at 2 h, 2.4 μM ([1]; 2 h at 37° C., read-out: Papp A − B (mean +/− SD)): 3.5 ± 0.84 ×10⁻⁶ cm/s
- Papp B→A at 2 h, 2.4 μM ([1]; 2 h at 37° C., read-out: Papp B − A (mean +/− SD)): 36.7 ± 7.5 ×10⁻⁶ cm/s
SMILES: COC(=O)N(C)c1c(N)nc(-c2nn(Cc3ccccc3F)c3ncccc23)nc1N [Comparative example 2 (Riociguat)]

SMILES: CCCCC[C@H](O)CC[C@@H]1[C@H]2Cc3cccc(OCC(=O)O)c3C[C@H]2C[C@H]1O [Treprostinil]
- mean change in PVR from baseline ([2]; inhaled, single administration, historical comparison): approximately −30%

SMILES: CC#CCC(C)[C@H](O)/C=C/[C@@H]1[C@H]2C/C(=C/CCCC(=O)O)C[C@H]2C[C@H]1O (stereo partly shown) [Ventavis ®]
- PAP % changes vs prevalue ([3]; time 0 min): 0%
- PAP % changes vs prevalue ([3]; time 10 min): −30.3%
- PAP % changes vs prevalue ([3]; time 20 min): −20.7%
- PAP % changes vs prevalue ([3]; time 30 min): −6.9%
- PAP % changes vs prevalue ([3]; time 40 min): 1.7%
- PAP % changes vs prevalue ([3]; time 50 min): 4.9%

SMILES: CC#CCC(C)[C@H](O)/C=C/[C@@H]1[C@H]2C/C(=C/CCCC(=O)O)C[C@H]2C[C@H]1O (stereo partly shown) [Ventavis]
- duration of action on haemodynamics (PVR) ([2]; clinical studies): about 60 min

SMILES: O=C(O)CCCCN(CCc1ccccc1OCc1ccc(CCc2ccccc2)cc1)Cc1ccc(C(=O)O)cc1 [comparative example 1]
- effect on pulmonary arterial pressure ([4]; inhalative administration in the form of microparticles): dose-dependent selective reduction of the pulmonary arterial pressure
- duration of action ([4]; inhalative administration): did not have a sufficient duration of action

Source: patent US12202805B2, “Process for preparing (5S)-{[2-(4-carboxyphenyl)ethyl] |2-(2-{|3-chloro-4'-(trifluoromethyl)biphenyl-4-yl]methoxy}phenyl)ethyl]aminol-5,6,7,8-tetrahydroquinoline-2-carboxylic acid and its crystalline forms for use as pharmaceutically active compound” (Bayer Aktiengesellschaft, priority 2021, dated 2025)
